One series deals with SARS-CoV-2. As to the kind of experiment: Anti-SARS-CoV-2 activity in A549 cells expressing the human ACE2 receptor (inhibition of SARS-CoV-2 replication). In kind it is cell-based. Conditions: for antiviral potency in A549 cells in comparison with compound Ref-2: versus Ref-2 (FIG. 7); for EC50: Severe acute respiratory syndrome coronavirus 2, A549-ACE2, 24 h, read-out: Antiviral Activity (EC50).

In series [1] the target is T1, SARS-CoV-2 3CLpro (Severe acute respiratory syndrome coronavirus 2, UniProt P0DTD1). The series is classed as binding. Conditions: ITC, 25° C., pH 7.4; versus Ref-2 (compound P2).
Series [2] deals with T1, SARS-CoV-2 3CLpro. As to the kind of experiment: biochemical. The note with it: inhibition of SARS-CoV-2 3CLpro; 15 nM 3CLpro, 25 μM fluorogenic substrate, 37° C.; read-out: Inhibitory Activity (IC50).
The nature of series [3]: Plasma protein binding (PPB) by equilibrium dialysis. The note with it: human and mouse plasma, 4 hours, 37° C., versus Ref-2. In kind it is in vitro ADME. Here is the method:
The binding of compounds Ref-2, 86, 97, 98 and 170 to human and mouse plasma were measured using equilibrium dialysis. A loading matrix was prepared by diluting of a 400 μM stock of each of the compounds in DMSO by the plasma matrix. To prepare the time zero (To) samples to be used for recovery determination, 50 μL of the loading matrix were transferred in triplicate to the sample collection plate, immediately matched with opposite blank buffer to obtain a final volume of 100 μL of 1:1 matrix/dialysis buffer (v/v) in each well, followed by the addition of 500 μL of stop solution (200 ng/mL of tolbutamide, 200 ng/mL of labetalol, and 50 ng/mL of metformin in acetonitrile) and then stored at 2-8° C. pending further processes along with other post-dialysis samples. To load the dialysis device, 150 μL of the loading matrix and 150 μL of the dialysis buffer were transferred to the donor side and the receiver side of each well, respectively. The dialysis plate was placed in a humidified incubator at 37° C. with 5% CO2 on a shaking platform that rotated slowly (about 100 rpm) for 4 hours, then 50 μL of samples were taken from both the buffer side and the matrix side, and transferred into new 96-well plates. Each sample was mixed with an equal volume of opposite blank buffer (or matrix) to reach a final volume of 100 μL, followed by the addition of 500 µL of stop solution. The mixture was vortexed and centrifuged at 4000 rpm for about 20 minutes, then […] of the supernatant of each sample was removed for LC-MS/MS analysis. The single blank samples were prepared by transferring 50 μL of blank matrix to a 96 well plate and adding 50 μL of blank PBS buffer to each well. The blank plasma must match the species of plasma used in the plasma side of the well. Then the matrix-matched samples were further processed by adding 500 μL of stop solution, following the same sample processing method as the dialysis samples. The % Unbound, % Bound and % Recovery were calculated using the following equations: […]
in which F is the analyte concentration or peak area ratio of analyte/internal standard on the buffer (receiver) side of the membrane, T is the analyte concentration or peak area ratio of analyte/internal standard on the matrix (donor) side of the membrane, and T0 is the analyte concentration or the peak area ratio of analyte/internal standard in the loading matrix sample at time zero.
In general terms: Equilibrium dialysis compares concentrations on both sides of a semipermeable membrane.

Series [4] concerns CYP1A2, CYP2C9, CYP2C19, CYP2D6 and CYP3A4. As to the kind of experiment: CYP inhibition evaluation in human liver microsomes. The series is classed as in vitro ADME. The note with it: CYP1A2, 2C9, 2C19, 2D6, 3A4, up to 50 μM. Here is the method:
20 μL of the substrate solutions of CYP1A2, CYP2C9, CYP2C19, CYP2D6 and CYP3A4 were each mixed with […] of the test compounds (final concentrations: 50 μM, 15 μM, 5 μM, 1.5 μM, 0.5 μM, 0.15 μM, 0.05 μM, 0 μM), followed by the addition of 158 μL of the HLM (Human liver microsome) working solution. Each of the mixtures was incubated at 37° C. for 10 minutes, and then mixed with 20 μL of NADPH cofactor, followed by incubation at 37° C. for additional 10 minutes. The reactions were terminated by adding 400 μL cold stop solution (200 ng/mL Tolbutamide and Labetalol in ACN). The samples are centrifuged at 4000 rpm for 20 minutes to precipitate protein. Next, 200 μL of the supernatant of each sample was transferred to 100 μL HPLC water and shaken for 10 minutes, and then analyzed by LC/MS/MS.

What is called EC50 is the concentration giving half of the maximal effect. The term IC50 denotes the concentration that gives 50% inhibition. Take `O=C(NC1CC(F)(F)C1)c1cc(Br)cc([N+](=O)[O-])c1N[C@H]1CN(C(=O)c2cncc3ccccc23)CC12CC2` [Compound 30, (R)-5-bromo-N-(3,3-difluorocyclobutyl)-2-((5-(isoquinoline-4-carbonyl)-5-azaspiro[2.4]heptan-7-yl)amino)-3-nitrobenzamide]: in the series on SARS-CoV-2, the “antiviral potency in A549 cells in comparison with compound Ref-2” value is recorded as “better antiviral potency” and the EC50 was less than 0.1 µM. Moreover, on SARS-CoV-2 3CLpro [1], the “binding affinity (dissociation constant, Kd) in comparison with compound Ref-2” value was “higher binding affinity”. The IC50 on SARS-CoV-2 3CLpro [2] is less than 0.1 µM.
For `CNC(=O)c1cc(Cl)cc([N+](=O)[O-])c1N[C@H]1CN(C(=O)c2cncc3ccn(C)c23)CCC1(F)F` [Compound 86, (S)-5-chloro-2-((4,4-difluoro-1-(1-methyl-1H-pyrrolo [3,2-c]pyridine-7-carbonyl)piperidin-3-yl)amino)-N-methyl-3-nitrobenzamide], in series [3], the “free PPB ratio in comparison with compound Ref-2” value (shortened to “free PPB ratio in comparison”) was “better free PPB ratios”. In addition, at SARS-CoV-2 3CLpro [2], the IC50 is less than 0.1 µM.
For the compound `CNC(=O)c1cc(Cl)cc([N+](=O)[O-])c1N[C@H]1CN(C(=O)c2cncc3ccncc23)CCC1(F)F` [Compound 97, (S)-5-chloro-2-((4,4-difluoro-1-(2,6-naphthyridine-4-carbonyl)piperidin-3-yl)amino)-N-methyl-3-nitrobenzamide], in series [4], the “effect on different CYP isoforms” value was “little effect on different CYP isoforms”. Also, in series [3], the “free PPB ratio in comparison” value is “better free PPB ratios”. Further, at SARS-CoV-2 3CLpro [2], the IC50 was less than 0.1 µM.
For `O=C(N[C@@H]1CCOC1)c1cc(Cl)cc([N+](=O)[O-])c1N[C@H]1CN(C(=O)c2cncc3ccccc23)CCC1(F)F` [Compound 142, 5-chloro-2-(((S)-4,4-difluoro-1-(isoquinoline-4-carbonyl)piperidin-3-yl)amino)-3-nitro-N-((R)-tetrahydrofuran-3-yl)benzamide], in the series on SARS-CoV-2, the EC50 was less than 0.1 µM. For the same compound, the IC50 at SARS-CoV-2 3CLpro [2] was less than 0.1 µM.
On to `O=C(c1cc(Cl)cc([N+](=O)[O-])c1N[C@H]1CN(C(=O)c2cncc3ccccc23)CCC1(F)F)N1CC(F)(F)C1` [Compound 143, (S)-(5-chloro-2-((4,4-difluoro-1-(isoquinoline-4-carbonyl)piperidin-3-yl)amino)-3-nitrophenyl)(3,3-difluoroazetidin-1-yl)methanone], for which, in the series with SARS-CoV-2, the concentration for a half-maximal effect (EC50) is less than 0.1 µM. Moreover, the half-inhibitory concentration (IC50) on SARS-CoV-2 3CLpro [2] was less than 0.1 µM.
`O=C(NC1CC(F)(F)C1)c1cc(Br)cc(C(F)(F)F)c1N[C@H]1CN(C(=O)c2cncc3ccccc23)CCC1(F)F` [Compound 144, (S)-5-bromo-2-((4,4-difluoro-1-(isoquinoline-4-carbonyl)piperidin-3-yl)amino)-N-(3,3-difluorocyclobutyl)-3-(trifluoromethyl)benzamide]: the concentration giving a half-maximal response (EC50) with SARS-CoV-2 was less than 0.1 µM. Also, the IC50 at SARS-CoV-2 3CLpro [2] was less than 0.1 µM.
As for `O=C(NC1CC(F)(F)C1)c1cc(Cl)cc(C(F)(F)F)c1N[C@@H]1COCC[C@@H]1NC(=O)c1cncc2ccccc12` [Compound 145, N-((3S, 4S)-3-((4-chloro-2-((3,3-difluorocyclobutyl)carbamoyl)-6-(trifluoromethyl)phenyl)amino)tetrahydro-2H-pyran-4-yl)isoquinoline-4-carboxamide], the EC50 with SARS-CoV-2 lay within 0.1 to 1 µM. The IC50 on SARS-CoV-2 3CLpro [2] lay in the range of 0.1 to 1 µM.
Take `CNC(=O)c1cc(Cl)cc(C(F)(F)F)c1N[C@@H]1COCC[C@@H]1NC(=O)c1cncc2ccccc12` [Compound 146, N-((3S, 4S)-3-((4-chloro-2-(methylcarbamoyl)-6-(trifluoromethyl)phenyl)amino)tetrahydro-2H-pyran-4-yl)isoquinoline-4-carboxamide]: the half-maximal effective concentration (EC50) in the series with SARS-CoV-2 lay within 0.1 to 1 µM. Moreover, the IC50 on SARS-CoV-2 3CLpro [2] fell in the range of 0.1 to 1 µM.
For `O=C(NC1CC1)c1cc(Br)cc([N+](=O)[O-])c1N[C@H]1CN(C(=O)c2cncc3ccccc23)CCC1(F)F` [Compound 147, (S)-5-bromo-N-cyclopropyl-2-((4,4-difluoro-1-(isoquinoline-4-carbonyl)piperidin-3-yl)amino)-3-nitrobenzamide], in the series with SARS-CoV-2, the 50% effective concentration (EC50) is less than 0.1 µM. In addition, the IC50 on SARS-CoV-2 3CLpro [2] was less than 0.1 µM.
For `O=C(N[C@H]1CCOC1)c1cc(Br)cc([N+](=O)[O-])c1N[C@H]1CN(C(=O)c2cncc3ccccc23)CCC1(F)F` [Compound 149, 5-bromo-2-(((S)-4,4-difluoro-1-(isoquinoline-4-carbonyl)piperidin-3-yl)amino)-3-nitro-N-((S)-tetrahydrofuran-3-yl)benzamide], the 50% effective concentration (EC50) in the series on SARS-CoV-2 is less than 0.1 µM. The IC50 at SARS-CoV-2 3CLpro [2] was less than 0.1 µM.
For `CN(C)C(=O)c1cc(Br)cc([N+](=O)[O-])c1N[C@H]1CN(C(=O)c2cncc3ccccc23)CCC1(F)F` [Compound 151, (S)-5-bromo-2-((4,4-difluoro-1-(isoquinoline-4-carbonyl)piperidin-3-yl)amino)-N, N-dimethyl-3-nitrobenzamide], in the series with SARS-CoV-2, the “antiviral potency in A549 cells in comparison with compound Ref-2” value is “better antiviral potency” and the 50% effective concentration (EC50) was less than 0.1 µM. In addition, the concentration for half-maximal inhibition (IC50) on SARS-CoV-2 3CLpro [2] is less than 0.1 µM.
Turning to `CC(C)(O)CNC(=O)c1cc(Br)cc([N+](=O)[O-])c1N[C@H]1CN(C(=O)c2cncc3ccccc23)CCC1(F)F` [Compound 154, (S)-5-bromo-2-((4,4-difluoro-1-(isoquinoline-4-carbonyl)piperidin-3-yl)amino)-N-(2-hydroxy-2-methylpropyl)-3-nitrobenzamide], the EC50 with SARS-CoV-2 is less than 0.1 µM. Besides, the IC50 on SARS-CoV-2 3CLpro [2] was less than 0.1 µM.
As to `Cn1cc(NC(=O)c2cc(Br)cc([N+](=O)[O-])c2N[C@H]2CN(C(=O)c3cncc4ccccc34)CCC2(F)F)cn1` [Compound 155, (S)-5-bromo-2-((4,4-difluoro-1-(isoquinoline-4-carbonyl)piperidin-3-yl)amino)-N-(1-methyl-1H-pyrazol-4-yl)-3-nitrobenzamide], the EC50 in the series on SARS-CoV-2 is less than 0.1 µM. The IC50 at SARS-CoV-2 3CLpro [2] was less than 0.1 µM.
For the compound `C=CCNC(=O)c1cc(Br)cc([N+](=O)[O-])c1N[C@H]1CN(C(=O)c2cncc3ccccc23)CCC1(F)F` [Compound 156, (S)-N-ally1-5-bromo-2-((4,4-difluoro-1-(isoquinoline-4-carbonyl)piperidin-3-yl)amino)-3-nitrobenzamide], the EC50 in the series with SARS-CoV-2 was less than 0.1 µM. Besides, at SARS-CoV-2 3CLpro [2], the IC50 is less than 0.1 µM.
Turning to `CC1(NC(=O)c2cc(Br)cc([N+](=O)[O-])c2N[C@H]2CN(C(=O)c3cncc4ccccc34)CCC2(F)F)CC1` [Compound 157, (S)-5-bromo-2-((4,4-difluoro-1-(isoquinoline-4-carbonyl)piperidin-3-yl)amino)-N-(1-methylcyclopropyl)-3-nitrobenzamide], the concentration giving a half-maximal response (EC50) with SARS-CoV-2 was less than 0.1 µM. Further, the concentration for half-maximal inhibition (IC50) on SARS-CoV-2 3CLpro [2] was less than 0.1 µM.
For the compound `O=C(NC1CC(F)(F)C1)c1cc(Cl)cc([N+](=O)[O-])c1N[C@H]1CN(C(=O)c2cncc3ccccc23)CCC1(F)F` [Compound 158, (S)-5-chloro-2-((4,4-difluoro-1-(isoquinoline-4-carbonyl)piperidin-3-yl)amino)-N-(3,3-difluorocyclobutyl)-3-nitrobenzamide], the EC50 with SARS-CoV-2 is less than 0.1 µM. Also, the IC50 on SARS-CoV-2 3CLpro [2] is less than 0.1 µM.
For `CNC(=O)c1cc(Cl)cc([N+](=O)[O-])c1N[C@H]1CN(C(=O)c2cncc3cccnc23)CC[C@@H]1F` [Compound 170, 5-chloro-2-(((3S, 4S)-4-fluoro-1-(1,6-naphthyridine-8-carbonyl)piperidin-3-yl)amino)-N-methyl-3-nitrobenzamide], the “effect on different CYP isoforms” value in series [4] was “little effect on different CYP isoforms”. Further, in series [3], the “free PPB ratio in comparison” value was “better free PPB ratios”. Further, on SARS-CoV-2 3CLpro [2], the IC50 was less than 0.1 µM.
